In US20150133664A1, “CHEMICAL TRANS[…] (-)-CODEINE TO AFFORD DERIVATIVES OF CODEINE AND MORPHINE THEREOF” (BOARD OF REGENTS, THE UNIVERSITY OF TEXAS SYSTEM, priority 2012, published 2015):

Experiment: potency compared with codeine and morphine (test not described)
Settings: no assay, value or method printed

| Structure (SMILES) | potency compared with morphine (compared with morphine) | potency compared with codeine (compared with codeine) |
| --- | --- | --- |
| C[C@@H]1C[C@H]2[C@H]3Cc4ccc(O)c5c4[C@@]2(CCN3C)[C@@H](O5)C1O (stereo partly drawn) [Compound 9, 7β-Methyl-7,8-dihydromorphine] | increased potency |  |
| COc1ccc2c3c1O[C@H]1C(O)[C@H](C)C[C@H]4[C@@H](C2)N(C)CC[C@]314 (stereo partly drawn) [Compound 8, 7β-Methyl-7,8-dihydrocodeine] |  | increased potency |
